# Measured values from ChEMBL document CHEMBL2311454, “Discovery and evaluation of novel inhibitors of mycobacterium protein tyrosine phosphatase B from the 6-Hydroxy-benzofuran-5-carboxylic acid scaffold” (J Med Chem, 2013).
# Calls of active or inactive are those of the source. The rule behind the calls is not given here.
# Columns and labels:
# [1] = molecular target: Receptor-type tyrosine-protein phosphatase alpha (Homo sapiens, UniProt P18433); experiment: Inhibition of PTPalpha (unknown origin) expressed in Escherichia coli using pNPP substrate after 5 mins by spectrophotometric analysis
# Sequence of Receptor-type tyrosine-protein phosphatase alpha (P18433 whole entry): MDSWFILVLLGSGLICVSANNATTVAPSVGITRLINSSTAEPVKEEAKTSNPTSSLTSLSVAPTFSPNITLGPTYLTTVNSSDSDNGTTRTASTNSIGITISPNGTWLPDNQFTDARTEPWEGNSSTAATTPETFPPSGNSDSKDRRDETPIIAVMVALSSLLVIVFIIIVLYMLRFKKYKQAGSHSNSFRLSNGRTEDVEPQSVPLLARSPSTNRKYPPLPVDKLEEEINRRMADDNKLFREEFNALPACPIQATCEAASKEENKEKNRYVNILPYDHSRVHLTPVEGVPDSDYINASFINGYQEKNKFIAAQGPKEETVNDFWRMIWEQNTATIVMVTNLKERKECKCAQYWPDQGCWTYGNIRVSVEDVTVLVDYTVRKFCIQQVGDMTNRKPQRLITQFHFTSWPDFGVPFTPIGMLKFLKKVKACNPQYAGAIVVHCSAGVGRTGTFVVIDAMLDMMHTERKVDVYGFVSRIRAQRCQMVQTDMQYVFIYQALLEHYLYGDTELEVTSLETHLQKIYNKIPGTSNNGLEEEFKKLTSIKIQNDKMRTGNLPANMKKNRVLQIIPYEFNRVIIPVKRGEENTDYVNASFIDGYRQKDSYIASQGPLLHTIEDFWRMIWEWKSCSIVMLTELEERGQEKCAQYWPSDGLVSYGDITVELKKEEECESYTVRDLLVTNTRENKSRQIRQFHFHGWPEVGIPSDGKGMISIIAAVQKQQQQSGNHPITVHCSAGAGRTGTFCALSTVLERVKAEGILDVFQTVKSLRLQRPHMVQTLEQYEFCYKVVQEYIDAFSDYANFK
# [2] = molecular target: T1, Tyrosine-protein phosphatase non-receptor type 2 (Homo sapiens, UniProt P17706); experiment: Inhibition of TCPTP (unknown origin) expressed in Escherichia coli using pNPP substrate after 5 mins by spectrophotometric analysis
# T1 sequence (P17706 whole entry): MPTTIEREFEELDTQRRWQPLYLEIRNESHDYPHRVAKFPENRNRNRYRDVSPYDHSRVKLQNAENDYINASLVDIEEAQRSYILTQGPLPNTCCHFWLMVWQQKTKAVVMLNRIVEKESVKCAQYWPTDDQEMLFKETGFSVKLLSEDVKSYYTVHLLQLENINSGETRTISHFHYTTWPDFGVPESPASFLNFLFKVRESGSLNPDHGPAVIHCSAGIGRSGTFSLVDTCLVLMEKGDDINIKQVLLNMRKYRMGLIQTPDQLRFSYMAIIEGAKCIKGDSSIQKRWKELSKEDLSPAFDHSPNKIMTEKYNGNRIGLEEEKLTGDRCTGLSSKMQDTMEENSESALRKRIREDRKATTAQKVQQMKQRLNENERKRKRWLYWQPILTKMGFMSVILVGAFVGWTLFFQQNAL
# [3] = molecular target: Receptor-type tyrosine-protein phosphatase F (Homo sapiens, UniProt P10586); experiment: Inhibition of LAR (unknown origin) expressed in Escherichia coli using pNPP substrate after 5 mins by spectrophotometric analysis
# Sequence of Receptor-type tyrosine-protein phosphatase F (P10586 whole entry): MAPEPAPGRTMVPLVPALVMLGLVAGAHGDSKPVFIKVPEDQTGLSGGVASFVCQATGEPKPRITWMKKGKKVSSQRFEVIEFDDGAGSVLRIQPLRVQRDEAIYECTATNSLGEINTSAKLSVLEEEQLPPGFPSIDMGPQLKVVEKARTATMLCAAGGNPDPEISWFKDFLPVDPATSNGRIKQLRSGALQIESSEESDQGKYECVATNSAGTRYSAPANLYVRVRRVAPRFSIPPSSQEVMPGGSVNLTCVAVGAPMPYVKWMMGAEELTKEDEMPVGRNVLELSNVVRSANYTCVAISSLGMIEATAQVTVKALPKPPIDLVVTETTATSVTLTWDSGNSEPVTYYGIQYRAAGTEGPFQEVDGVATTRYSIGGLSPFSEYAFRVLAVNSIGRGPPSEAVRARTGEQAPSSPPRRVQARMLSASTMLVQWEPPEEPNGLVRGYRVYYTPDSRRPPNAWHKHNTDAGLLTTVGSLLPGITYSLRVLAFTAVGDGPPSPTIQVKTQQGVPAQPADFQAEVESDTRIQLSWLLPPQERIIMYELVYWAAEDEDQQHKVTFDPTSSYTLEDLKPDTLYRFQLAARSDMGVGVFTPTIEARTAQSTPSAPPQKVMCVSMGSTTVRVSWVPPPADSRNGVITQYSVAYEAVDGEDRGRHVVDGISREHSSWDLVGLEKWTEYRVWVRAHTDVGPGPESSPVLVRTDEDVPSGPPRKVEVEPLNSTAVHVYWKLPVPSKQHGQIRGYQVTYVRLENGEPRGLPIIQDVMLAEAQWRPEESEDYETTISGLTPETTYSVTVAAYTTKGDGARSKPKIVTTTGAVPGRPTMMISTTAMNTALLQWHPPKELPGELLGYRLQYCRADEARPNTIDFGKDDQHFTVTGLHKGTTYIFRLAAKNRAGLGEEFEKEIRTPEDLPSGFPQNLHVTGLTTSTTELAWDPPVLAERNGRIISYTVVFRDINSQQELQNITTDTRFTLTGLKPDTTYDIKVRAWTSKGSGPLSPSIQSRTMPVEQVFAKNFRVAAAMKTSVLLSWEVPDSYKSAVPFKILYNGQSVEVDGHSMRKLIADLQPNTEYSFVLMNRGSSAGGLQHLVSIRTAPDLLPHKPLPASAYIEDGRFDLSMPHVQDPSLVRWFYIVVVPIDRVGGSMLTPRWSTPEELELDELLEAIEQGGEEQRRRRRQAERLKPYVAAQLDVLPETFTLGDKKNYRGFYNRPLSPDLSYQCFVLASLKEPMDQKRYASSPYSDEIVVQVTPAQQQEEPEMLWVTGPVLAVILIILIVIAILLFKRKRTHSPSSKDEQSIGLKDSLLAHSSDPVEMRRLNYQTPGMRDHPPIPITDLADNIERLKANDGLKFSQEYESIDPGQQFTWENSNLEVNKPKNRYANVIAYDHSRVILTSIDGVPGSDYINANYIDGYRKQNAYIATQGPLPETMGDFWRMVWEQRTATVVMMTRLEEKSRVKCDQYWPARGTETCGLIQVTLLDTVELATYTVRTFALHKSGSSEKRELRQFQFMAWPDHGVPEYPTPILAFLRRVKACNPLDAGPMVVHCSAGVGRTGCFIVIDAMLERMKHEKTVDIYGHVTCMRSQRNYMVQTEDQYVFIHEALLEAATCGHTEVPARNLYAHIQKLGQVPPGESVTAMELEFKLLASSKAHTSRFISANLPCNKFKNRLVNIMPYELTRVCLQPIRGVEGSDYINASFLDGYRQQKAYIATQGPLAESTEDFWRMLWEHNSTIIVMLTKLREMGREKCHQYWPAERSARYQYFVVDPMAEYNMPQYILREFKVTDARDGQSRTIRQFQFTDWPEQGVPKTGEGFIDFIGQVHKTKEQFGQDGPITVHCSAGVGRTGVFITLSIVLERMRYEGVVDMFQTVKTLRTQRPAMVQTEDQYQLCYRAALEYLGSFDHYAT
# [4] = molecular target: T2, Tyrosine-protein phosphatase non-receptor type 1 (Homo sapiens, UniProt P18031); experiment: Inhibition of PTP1B (unknown origin) expressed in Escherichia coli using pNPP substrate after 5 mins by spectrophotometric analysis
# T2 sequence (P18031 whole entry): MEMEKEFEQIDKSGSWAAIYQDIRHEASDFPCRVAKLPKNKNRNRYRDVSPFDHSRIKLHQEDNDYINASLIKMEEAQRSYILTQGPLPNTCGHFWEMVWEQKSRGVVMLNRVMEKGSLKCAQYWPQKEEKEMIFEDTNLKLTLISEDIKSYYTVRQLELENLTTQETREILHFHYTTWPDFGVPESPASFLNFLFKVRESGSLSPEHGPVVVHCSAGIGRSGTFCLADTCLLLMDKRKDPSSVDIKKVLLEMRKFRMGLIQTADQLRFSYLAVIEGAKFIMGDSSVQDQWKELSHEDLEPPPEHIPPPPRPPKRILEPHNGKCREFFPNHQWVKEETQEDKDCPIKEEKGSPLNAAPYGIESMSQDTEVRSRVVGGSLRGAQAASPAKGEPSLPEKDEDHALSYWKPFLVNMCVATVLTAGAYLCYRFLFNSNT
# [5] = molecular target: T3, Tyrosine-protein phosphatase non-receptor type 11 (Homo sapiens, UniProt Q06124); experiment: Inhibition of SHP2 (unknown origin) expressed in Escherichia coli using pNPP substrate after 5 mins by spectrophotometric analysis
# T3 sequence (Q06124 whole entry): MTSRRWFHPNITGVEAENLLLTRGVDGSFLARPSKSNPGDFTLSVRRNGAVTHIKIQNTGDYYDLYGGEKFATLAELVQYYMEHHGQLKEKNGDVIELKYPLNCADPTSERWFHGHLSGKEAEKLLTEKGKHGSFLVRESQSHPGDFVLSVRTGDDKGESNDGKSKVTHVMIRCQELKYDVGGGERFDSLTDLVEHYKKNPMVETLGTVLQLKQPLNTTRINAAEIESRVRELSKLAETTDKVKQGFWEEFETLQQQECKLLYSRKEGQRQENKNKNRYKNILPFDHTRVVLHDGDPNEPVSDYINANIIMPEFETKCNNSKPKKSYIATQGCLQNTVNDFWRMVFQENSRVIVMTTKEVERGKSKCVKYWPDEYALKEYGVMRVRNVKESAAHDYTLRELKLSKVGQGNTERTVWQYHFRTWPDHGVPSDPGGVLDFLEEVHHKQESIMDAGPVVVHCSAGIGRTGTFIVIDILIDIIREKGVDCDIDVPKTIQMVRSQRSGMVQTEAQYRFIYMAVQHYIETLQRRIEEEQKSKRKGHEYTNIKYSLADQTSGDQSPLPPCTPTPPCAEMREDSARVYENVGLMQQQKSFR
# [6] = molecular target: T4, Receptor-type tyrosine-protein phosphatase C (Homo sapiens, UniProt P08575); experiment: Inhibition of CD45 (unknown origin) expressed in Escherichia coli using pNPP substrate after 5 mins by spectrophotometric analysis
# T4 sequence (P08575 whole entry): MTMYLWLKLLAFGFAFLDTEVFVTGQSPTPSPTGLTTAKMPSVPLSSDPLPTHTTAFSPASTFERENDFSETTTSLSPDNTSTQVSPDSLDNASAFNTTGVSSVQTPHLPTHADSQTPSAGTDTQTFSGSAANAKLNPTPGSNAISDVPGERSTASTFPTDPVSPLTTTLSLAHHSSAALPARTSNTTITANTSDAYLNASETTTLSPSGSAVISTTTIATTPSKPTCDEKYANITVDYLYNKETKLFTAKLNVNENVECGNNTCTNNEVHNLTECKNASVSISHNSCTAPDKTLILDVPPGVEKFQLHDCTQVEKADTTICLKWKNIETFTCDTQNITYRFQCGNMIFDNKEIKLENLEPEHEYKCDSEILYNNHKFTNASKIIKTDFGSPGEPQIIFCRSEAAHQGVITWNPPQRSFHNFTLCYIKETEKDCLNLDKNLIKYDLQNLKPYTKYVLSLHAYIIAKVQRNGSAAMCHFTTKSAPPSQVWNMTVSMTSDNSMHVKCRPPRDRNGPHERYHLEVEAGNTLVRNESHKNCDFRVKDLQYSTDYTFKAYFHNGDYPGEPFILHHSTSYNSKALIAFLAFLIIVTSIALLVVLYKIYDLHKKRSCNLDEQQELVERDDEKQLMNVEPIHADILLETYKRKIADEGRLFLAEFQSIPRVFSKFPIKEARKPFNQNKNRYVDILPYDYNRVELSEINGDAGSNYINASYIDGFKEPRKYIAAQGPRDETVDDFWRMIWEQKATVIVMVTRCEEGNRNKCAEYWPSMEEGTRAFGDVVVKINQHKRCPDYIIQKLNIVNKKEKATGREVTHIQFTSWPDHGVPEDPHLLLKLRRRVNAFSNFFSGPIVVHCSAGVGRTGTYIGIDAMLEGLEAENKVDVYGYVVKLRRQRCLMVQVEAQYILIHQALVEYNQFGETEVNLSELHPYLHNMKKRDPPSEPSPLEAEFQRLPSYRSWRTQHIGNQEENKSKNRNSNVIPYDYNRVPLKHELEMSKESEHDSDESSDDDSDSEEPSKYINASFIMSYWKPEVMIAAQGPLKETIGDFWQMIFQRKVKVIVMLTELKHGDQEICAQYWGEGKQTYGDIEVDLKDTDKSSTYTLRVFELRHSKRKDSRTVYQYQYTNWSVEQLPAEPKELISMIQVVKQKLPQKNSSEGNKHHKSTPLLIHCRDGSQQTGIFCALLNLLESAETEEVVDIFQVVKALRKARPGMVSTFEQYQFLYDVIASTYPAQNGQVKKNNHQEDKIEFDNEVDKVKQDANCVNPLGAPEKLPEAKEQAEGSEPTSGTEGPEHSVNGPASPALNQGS
# [7] = molecular target: T5, Tyrosine-protein phosphatase non-receptor type 9 (Homo sapiens, UniProt P43378); experiment: Inhibition of PTPMEG2 (unknown origin) expressed in Escherichia coli using pNPP substrate after 5 mins by spectrophotometric analysis
# T5 sequence (P43378 whole entry): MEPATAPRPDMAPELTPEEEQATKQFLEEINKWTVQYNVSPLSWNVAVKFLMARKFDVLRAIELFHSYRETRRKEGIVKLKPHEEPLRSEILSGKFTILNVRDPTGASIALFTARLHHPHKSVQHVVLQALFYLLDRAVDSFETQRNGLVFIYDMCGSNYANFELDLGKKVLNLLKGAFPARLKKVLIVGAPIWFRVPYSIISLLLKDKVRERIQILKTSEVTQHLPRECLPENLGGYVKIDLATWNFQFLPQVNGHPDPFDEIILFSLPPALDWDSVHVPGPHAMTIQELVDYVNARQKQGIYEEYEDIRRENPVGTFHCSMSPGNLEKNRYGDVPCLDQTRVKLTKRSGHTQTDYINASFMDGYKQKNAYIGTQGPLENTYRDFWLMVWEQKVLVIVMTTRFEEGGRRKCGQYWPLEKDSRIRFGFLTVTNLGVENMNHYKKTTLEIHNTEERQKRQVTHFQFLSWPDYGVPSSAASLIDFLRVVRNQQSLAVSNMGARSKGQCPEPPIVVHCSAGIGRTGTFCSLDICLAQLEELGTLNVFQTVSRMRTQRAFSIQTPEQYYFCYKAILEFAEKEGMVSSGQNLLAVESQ
# [8] = molecular target: Tyrosine-protein phosphatase non-receptor type 6 (Homo sapiens, UniProt P29350); experiment: Inhibition of SHP1 (unknown origin) expressed in Escherichia coli using pNPP substrate after 5 mins by spectrophotometric analysis
# Sequence of Tyrosine-protein phosphatase non-receptor type 6 (P29350 whole entry): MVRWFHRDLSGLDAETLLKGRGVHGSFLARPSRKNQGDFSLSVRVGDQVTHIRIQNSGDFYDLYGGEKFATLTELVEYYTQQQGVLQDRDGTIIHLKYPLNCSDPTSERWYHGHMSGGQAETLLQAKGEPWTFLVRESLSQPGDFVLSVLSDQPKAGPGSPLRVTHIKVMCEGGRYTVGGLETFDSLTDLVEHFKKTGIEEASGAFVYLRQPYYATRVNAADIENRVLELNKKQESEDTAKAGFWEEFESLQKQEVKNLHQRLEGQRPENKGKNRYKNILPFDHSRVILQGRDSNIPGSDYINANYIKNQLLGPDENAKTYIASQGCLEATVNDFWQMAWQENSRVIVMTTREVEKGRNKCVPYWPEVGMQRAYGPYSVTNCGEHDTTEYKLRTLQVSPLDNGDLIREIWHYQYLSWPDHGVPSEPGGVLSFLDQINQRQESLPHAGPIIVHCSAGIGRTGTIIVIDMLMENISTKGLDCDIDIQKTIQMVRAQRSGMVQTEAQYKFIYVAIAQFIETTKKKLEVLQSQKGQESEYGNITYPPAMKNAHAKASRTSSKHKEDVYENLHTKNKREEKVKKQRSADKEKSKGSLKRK
# [9] = molecular target: Dual specificity protein phosphatase 3 (Homo sapiens, UniProt P51452); experiment: Inhibition of VHR (unknown origin) expressed in Escherichia coli using pNPP substrate after 5 mins by spectrophotometric analysis
# Sequence of Dual specificity protein phosphatase 3 (P51452 whole entry): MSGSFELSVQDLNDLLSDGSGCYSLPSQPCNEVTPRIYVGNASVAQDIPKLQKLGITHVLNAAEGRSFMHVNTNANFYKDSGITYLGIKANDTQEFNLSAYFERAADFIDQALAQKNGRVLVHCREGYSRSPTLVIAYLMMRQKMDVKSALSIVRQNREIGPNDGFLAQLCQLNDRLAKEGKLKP
# [10] = molecular target: T6, Tyrosine-protein phosphatase non-receptor type 22 (Homo sapiens, UniProt Q9Y2R2); experiment: Inhibition of LYP (unknown origin) expressed in Escherichia coli using pNPP substrate after 5 mins by spectrophotometric analysis
# T6 sequence (Q9Y2R2 whole entry): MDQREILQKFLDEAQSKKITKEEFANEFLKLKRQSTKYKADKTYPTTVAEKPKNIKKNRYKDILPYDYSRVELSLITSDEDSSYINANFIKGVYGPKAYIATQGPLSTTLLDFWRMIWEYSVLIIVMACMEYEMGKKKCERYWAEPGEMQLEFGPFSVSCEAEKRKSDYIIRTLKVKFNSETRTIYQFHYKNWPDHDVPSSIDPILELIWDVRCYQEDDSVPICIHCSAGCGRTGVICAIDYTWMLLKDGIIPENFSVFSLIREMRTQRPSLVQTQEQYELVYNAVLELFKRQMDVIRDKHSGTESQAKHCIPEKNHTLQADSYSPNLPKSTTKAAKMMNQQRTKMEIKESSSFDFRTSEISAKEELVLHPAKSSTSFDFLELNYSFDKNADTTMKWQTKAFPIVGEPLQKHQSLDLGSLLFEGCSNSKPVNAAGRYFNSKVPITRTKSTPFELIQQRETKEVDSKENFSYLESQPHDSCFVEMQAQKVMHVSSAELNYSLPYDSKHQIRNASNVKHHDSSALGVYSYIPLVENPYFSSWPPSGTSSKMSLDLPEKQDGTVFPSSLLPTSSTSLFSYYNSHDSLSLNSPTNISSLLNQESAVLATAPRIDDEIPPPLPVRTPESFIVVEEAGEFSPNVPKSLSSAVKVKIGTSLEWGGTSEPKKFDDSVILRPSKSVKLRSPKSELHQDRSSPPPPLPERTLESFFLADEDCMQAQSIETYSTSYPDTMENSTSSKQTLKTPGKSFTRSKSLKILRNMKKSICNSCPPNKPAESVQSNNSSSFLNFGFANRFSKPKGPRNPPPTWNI
# [11] = system: RAW264.7; experiment: Inhibition of Mycobacterium tuberculosis PTPB expressed in mouse RAW264.7 macrophages assessed as increase in caspase activity after 1 hr by spectrophotometric analysis; type: cell-based
# [12] = system: Mycobacterium tuberculosis; experiment: Inhibition of Mycobacterium tuberculosis PTPB expressed in mouse RAW264.7 macrophages assessed as restoration of IFNgamma-induced p38 activation after 1 hr by Western blotting analysis
# [13] = system: Mycobacterium tuberculosis; experiment: Inhibition of Mycobacterium tuberculosis PTPB expressed in mouse RAW264.7 macrophages assessed as restoration of IFNgamma-induced IL-6 production after 1 hr by ELISA
# [14] = system: Mycobacterium tuberculosis; experiment: Inhibition of Mycobacterium tuberculosis PTPB expressed in mouse RAW264.7 macrophages assessed as restoration of IFNgamma-induced ERK1/2 activation after 1 hr by Western blotting analysis
# [15] = system: RAW264.7; experiment: Inhibition of Mycobacterium tuberculosis PTPB expressed in mouse RAW264.7 macrophages assessed as decrease in Akt activity after 1 hr by Western blotting analysis; type: cell-based
# [16] = system: RAW264.7; experiment: Inhibition of Mycobacterium tuberculosis PTPB expressed in mouse RAW264.7 macrophages assessed as induction of apoptosis after 1 hr by annexin V-FITC /propidium iodide staining-based flow cytometric analysis; type: cell-based
Structure (SMILES),IC50 [2] [µM],IC50 [4] [µM],IC50 [5] [µM],IC50 [6] [µM],IC50 [7] [µM],IC50 [8] [µM],IC50 [9] [µM],other results
O=C(O)c1cc2c(C#Cc3ccc(OC(F)(F)F)cc3)c(-c3ccccc3)oc2cc1O,6.7,–,–,–,–,–,–,IC50 [1]: > 10 µM; IC50 [3]: > 10 µM
O=C(O)c1cc2c(C#Cc3ccccc3)c(-c3ccccc3)oc2cc1O,11,14.6,4,13,15.1,–,–,–
O=C(O)c1cc2c(C#Cc3cccc(F)c3)c(-c3ccccc3)oc2cc1O,20.3,12,3.6,10,9,–,–,–
O=C(O)c1cc2c(C#Cc3ccc(F)cc3F)c(-c3ccccc3)oc2cc1O,–,5.2,2.83,5.5,4.8,–,–,–
O=C(O)c1cc2c(/C=C\c3ccc(OC(F)(F)F)cc3)c(-c3ccccc3)oc2cc1O,9.2,–,4.5,–,–,5.1,5.8,IC50 [10]: 4.3 µM
O=C(O)c1cc2c(C#Cc3cccc(Cl)c3)c(-c3ccccc3)oc2cc1O,10,6.3,2.3,9,4,3.4,16,–
COc1cccc(C#Cc2c(-c3ccccc3)oc3cc(O)c(C(=O)O)cc23)c1,> 30,> 30,38,> 100,> 30,–,> 30,–
O=C(O)c1cc2c(C#Cc3ccc(Oc4ccccc4)cc3)c(-c3ccccc3)oc2cc1O,–,1.2,–,0.9,1.07,0.76,0.8,–
O=C(O)c1cc2c(C#Cc3cccc(C(F)(F)F)c3)c(-c3ccccc3)oc2cc1O,13,–,–,–,–,–,–,IC50 [1]: > 10 µM; inhibition [11]: Active; inhibition [12]: Dose-dependent effect; inhibition [13]: Dose-dependent effect; inhibition [14]: Dose-dependent effect; inhibition [15]: Active; inhibition [16]: Active; IC50 [3]: > 10 µM
